Laboratory results from patent US11912714B2, “Spiropyrrolidine derived antiviral agents” (ENANTA PHARMACEUTICALS, INC., priority 2021, dated 2024).
Like-named read-outs stand apart in the source and are kept apart here.

Experiments:
[1] = tested on: 229E human corona virus (hCoV); test: 229E live virus assay (CPE, ATPlite) in MRC-5 cells; format: cell-based, hCoV-229E; conditions: Human coronavirus 229E, MRC5, 144 h, read-out: 229E EC50
SARS-CoV-2 3CL-protease = SARS-CoV-2 3CL-protease (Severe acute respiratory syndrome coronavirus 2 (2019-nCoV) (SARS-CoV-2), UniProt P0DTD1); test: SARS-CoV-2 3C-like (3CL) protease fluorescence assay (FRET); format: biochemical; conditions: recombinant SARS-CoV-2 3CL-protease 10 nM, 30 min preincubation, peptide substrate, duplicate
[2] = MRC-5 cells, MOI 0.05, 6 days at 34° C., ATPlite readout, duplicate

| SMILES | EC50 [1] [nM] | IC50 (SARS-CoV-2 3CL-protease) [nM] | EC50 [1, 2] [nM] |
| --- | --- | --- | --- |
| CC(C)C[C@H](C(=O)Nc1cc(F)cc(F)c1)C(=O)N(C)[C@@H](CC(C)C)C(=O)N1C[C@]2(C[C@H]1C#N)C(=O)Nc1ccccc12 (single isomer, unassigned) [Compound 4] | < 100 | < 100 |  |
| CC(C)C[C@@H](C(=O)N1C[C@]2(C[C@H]1C#N)C(=O)Nc1ccccc12)N(C)C(=O)CC(=O)Nc1ccc(F)cc1F [Compound 1] |  | < 100 | < 100 |
| CC(C)CC(C(=O)Nc1cc(F)cc(F)c1)C(=O)N(C)[C@@H](CC(C)C)C(=O)N1C[C@]2(C[C@H]1C(N)=O)C(=O)Nc1ccccc12 (stereo partly shown) [Compound 2] |  | < 100 | 100 to 1000 |
| CC(C)C[C@@H](C(=O)Nc1cc(F)cc(F)c1)C(=O)N(C)[C@@H](CC(C)C)C(=O)N1C[C@]2(C[C@H]1C#N)C(=O)Nc1ccccc12 [Compound 3] | 100 to 1000 |  |  |
| CC(C)C[C@@H](C(=O)N1C[C@]2(C[C@H]1C#N)C(=O)Nc1ccccc12)N(C)C(=O)CC(=O)OC(C)(C)C [Compound 5] |  | < 100 | < 100 |
| CC(C)C[C@@H](C(=O)N1C[C@]2(C[C@H]1C#N)C(=O)Nc1ccccc12)N(C)C(=O)CC(=O)c1cc2c(F)cc(F)cc2[nH]1 [Compound 6] |  | < 100 | < 100 |
| CC(C)C[C@@H](C(=O)N1C[C@]2(C[C@H]1C#N)C(=O)Nc1ccccc12)N(C)C(=O)C(C)(C)C(=O)O [Compound 7] |  | > 1000 |  |
| CC(C)C[C@@H](C(=O)N1C[C@]2(C[C@H]1C#N)C(=O)Nc1ccccc12)N(C)C(=O)C(C)(C)C(=O)Nc1cc(F)ccc1F [Compound 8] |  | 100 to 1000 |  |
| Cc1cccc(C)c1NC(=O)C(C)(C)C(=O)N(C)[C@@H](CC(C)C)C(=O)N1C[C@]2(C[C@H]1C#N)C(=O)Nc1ccccc12 [Compound 9] |  | 100 to 1000 |  |
| Cc1cccc(C)c1NC(=O)CC(=O)N(C)[C@@H](CC(C)C)C(=O)N1C[C@]2(C[C@H]1C#N)C(=O)Nc1ccccc12 [Compound 10] |  | < 100 |  |
| CC(C)(C)C[C@H](NC(=O)C(C)(C)C(=O)Nc1cc(F)ccc1F)C(=O)N1C[C@]2(C[C@H]1C#N)C(=O)Nc1ccccc12 [Compound 11] |  | < 100 | 100 to 1000 |
| Cc1cccc(C)c1NC(=O)C(C)(C)C(=O)N[C@@H](CC(C)(C)C)C(=O)N1C[C@]2(C[C@H]1C#N)C(=O)Nc1ccccc12 [Compound 12] |  | < 100 |  |
| Cc1cccc(C)c1NS(=O)(=O)CC(=O)N(C)[C@@H](CC(C)C)C(=O)N1C[C@]2(C[C@H]1C#N)C(=O)Nc1ccccc12 [Compound 13] |  | < 100 |  |
| Cc1cccc(C)c1NC(=O)CS(=O)(=O)N(C)[C@@H](CC(C)(C)C)C(=O)N1C[C@]2(C[C@H]1C#N)C(=O)Nc1ccccc12 [Compound 14] |  | < 100 |  |
| CC(C)C[C@@H](C(=O)N1C[C@]2(C[C@H]1C#N)C(=O)Nc1ccccc12)N(C)C(=O)CC(=O)NCC(C)(C)O [Compound 15] |  | < 100 |  |
| CC(C)C[C@@H](C(=O)N1C[C@]2(C[C@H]1C#N)C(=O)Nc1ccccc12)N(C)C(=O)CC(=O)Nc1ccccc1 [Compound 16] |  | < 100 |  |
| CC(C)C[C@@H](C(=O)N1C[C@]2(C[C@H]1C#N)C(=O)Nc1ccccc12)N(C)C(=O)CC(=O)NCc1ccccc1 [Compound 17] |  | < 100 |  |
| CC(C)C[C@@H](C(=O)N1C[C@]2(C[C@H]1C#N)C(=O)Nc1ccccc12)N(C)C(=O)CC(=O)N[C@H](C)c1ccccc1 [Compound 18] |  | < 100 |  |
| CC(C)C[C@@H](C(=O)N1C[C@]2(C[C@H]1C#N)C(=O)Nc1ccccc12)N(C)C(=O)CC(=O)Nc1cccc2ccccc12 [Compound 19] |  | < 100 |  |
| CC(C)C[C@@H](C(=O)N1C[C@]2(C[C@H]1C#N)C(=O)Nc1ccccc12)N(C)C(=O)CC(=O)N[C@@H](C)c1ccccc1 [Compound 20] |  | 100 to 1000 |  |
| CC(C)C[C@@H](C(=O)N1C[C@]2(C[C@H]1C#N)C(=O)Nc1ccccc12)N(C)C(=O)CC(=O)Nc1ccccn1 [Compound 21] |  | < 100 |  |
| CC(C)C[C@@H](C(=O)N1C[C@]2(C[C@H]1C#N)C(=O)Nc1ccccc12)N(C)C(=O)CC(=O)Nc1cccnc1 [Compound 22] |  | < 100 |  |
| CC(C)C[C@@H](C(=O)N1C[C@]2(C[C@H]1C#N)C(=O)Nc1ccccc12)N(C)C(=O)CC(=O)Nc1ccncc1 [Compound 23] |  | < 100 |  |
| CC(C)C[C@@H](C(=O)N1C[C@]2(C[C@H]1C#N)C(=O)Nc1ccccc12)N(C)C(=O)CC(=O)Nc1ccccc1F [Compound 24] |  | < 100 |  |
| CC(C)C[C@@H](C(=O)N1C[C@]2(C[C@H]1C#N)C(=O)Nc1ccccc12)N(C)C(=O)CC(=O)Nc1cccc(F)c1 [Compound 25] |  | < 100 |  |

| SMILES | EC50 [1] [nM] | IC50 (SARS-CoV-2 3CL-protease) [nM] | EC50 [1, 2] [nM] |
| --- | --- | --- | --- |
| CC(C)C[C@@H](C(=O)N1C[C@]2(C[C@H]1C#N)C(=O)Nc1ccccc12)N(C)C(=O)CC(=O)Nc1ccc(F)cc1 [Compound 26] |  | < 100 |  |
| CC(C)C[C@@H](C(=O)N1C[C@]2(C[C@H]1C#N)C(=O)Nc1ccccc12)N(C)C(=O)CC(=O)Nc1cn[nH]c1 [Compound 27] |  | < 100 |  |
| Cc1cccc(C)c1NC(=O)C1(C(=O)N[C@@H](CC(C)(C)C)C(=O)N2C[C@]3(C[C@H]2C#N)C(=O)Nc2ccccc23)CC1 [Compound 29] |  | < 100 |  |
| Cc1cccc(C)c1NC(=O)C1(C(=O)N[C@@H](CC(C)C)C(=O)N2C[C@]3(C[C@H]2C#N)C(=O)Nc2ccccc23)CCCC1 [Compound 30] |  | < 100 |  |
| CC(C)C[C@@H](C(=O)N1C[C@]2(C[C@H]1C#N)C(=O)Nc1ccccc12)N(C)C(=O)CC(=O)NC[C@H](C)O [Compound 31] |  | < 100 |  |
| CC(C)C[C@@H](C(=O)N1C[C@]2(C[C@H]1C#N)C(=O)Nc1ccccc12)N(C)C(=O)CC(=O)NC[C@@H](C)O [Compound 32] |  | < 100 |  |
| CC(C)C[C@@H](C(=O)N1C[C@]2(C[C@H]1C#N)C(=O)Nc1ccccc12)N(C)C(=O)CC(=O)N[C@H](C)CO [Compound 33] |  | < 100 |  |
| CC(C)C[C@@H](C(=O)N1C[C@]2(C[C@H]1C#N)C(=O)Nc1ccccc12)N(C)C(=O)CC(=O)N[C@@H](C)CO [Compound 34] |  | < 100 |  |
| CC(C)C[C@@H](C(=O)N1C[C@]2(C[C@H]1C#N)C(=O)Nc1ccccc12)N(C)C(=O)CC(=O)NCC(F)F [Compound 35] |  | < 100 |  |
| CC(C)C[C@@H](C(=O)N1C[C@]2(C[C@H]1C#N)C(=O)Nc1ccccc12)N(C)C(=O)CC(=O)N[C@@H]1CCN(C(=O)OC(C)(C)C)C1 [Compound 36] |  | 100 to 1000 |  |
| CC(C)C[C@@H](C(=O)N1C[C@]2(C[C@H]1C#N)C(=O)Nc1ccccc12)N(C)C(=O)CC(=O)N[C@H]1CCN(C(=O)OC(C)(C)C)C1 [Compound 37] |  | < 100 |  |
| Cc1cccc(C)c1NC(=O)C1(C(=O)N[C@@H](CC(C)C)C(=O)N2C[C@]3(C[C@H]2C#N)C(=O)Nc2ccccc23)CCOCC1 [Compound 38] |  | < 100 |  |
| CC(C)C[C@H](NC(=O)C1(C(=O)NCC(C)(C)O)CCC1)C(=O)N1C[C@]2(C[C@H]1C#N)C(=O)Nc1ccccc12 [Compound 39] |  | < 100 |  |
| Cc1cccc(C)c1NC(=O)C1(C(=O)N[C@@H](CC(C)(C)C)C(=O)N2C[C@]3(C[C@H]2C#N)C(=O)Nc2ccccc23)CCOCC1 [Compound 40] |  | < 100 |  |
| CC(C)C[C@@H](C(=O)N1C[C@]2(C[C@H]1C#N)C(=O)Nc1ccccc12)N(C)C(=O)CC(=O)N[C@@H]1CCC[C@@H]1O [Compound 41] |  | < 100 |  |
| CC(C)C[C@@H](C(=O)N1C[C@]2(C[C@H]1C#N)C(=O)Nc1ccccc12)N(C)C(=O)CC(=O)N[C@H]1CCC[C@@H]1O [Compound 42] |  | < 100 |  |
| CC(C)C[C@@H](C(=O)N1C[C@]2(C[C@H]1C#N)C(=O)Nc1ccccc12)N(C)C(=O)CC(=O)N[C@@H]1CCC[C@H]1O [Compound 43] |  | < 100 |  |
| CC(C)C[C@@H](C(=O)N1C[C@]2(C[C@H]1C#N)C(=O)Nc1ccccc12)N(C)C(=O)CC(=O)N[C@H]1CCC[C@H]1O [Compound 44] |  | < 100 |  |
| CC(C)C[C@@H](C(=O)N1C[C@]2(C[C@H]1C#N)C(=O)Nc1ccccc12)N(C)C(=O)CC(=O)N[C@@H]1CC[C@H](O)C1 [Compound 45] |  | < 100 |  |
| CC(C)C[C@@H](C(=O)N1C[C@]2(C[C@H]1C#N)C(=O)Nc1ccccc12)N(C)C(=O)CC(=O)N[C@H]1CC[C@H](O)C1 [Compound 46] |  | < 100 |  |
| CC(C)C[C@@H](C(=O)N1C[C@]2(C[C@H]1C#N)C(=O)Nc1ccccc12)N(C)C(=O)CC(=O)N[C@@H]1CC[C@@H](O)C1 [Compound 47] |  | < 100 |  |
| CC(C)C[C@@H](C(=O)N1C[C@]2(C[C@H]1C#N)C(=O)Nc1ccccc12)N(C)C(=O)CC(=O)N[C@H]1CC[C@@H](O)C1 [Compound 48] |  | < 100 |  |
| CC(C)C[C@@H](C(=O)N1C[C@]2(C[C@H]1C#N)C(=O)Nc1ccccc12)N(C)C(=O)CC(=O)N[C@@H](C)C(F)(F)F [Compound 49] |  | < 100 |  |
| CC(C)C[C@@H](C(=O)N1C[C@]2(C[C@H]1C#N)C(=O)Nc1ccccc12)N(C)C(=O)CC(=O)N[C@H](C)C(F)(F)F [Compound 50] |  | < 100 |  |
